Non-standard residues stand in square brackets, D forms with d. Residues, ends and D or L forms follow the SMILES beside them.

The subject of this test is VEGF. The experiment in a line: Real-time RT-PCR of VEGF transcripts. It is filed as cell-based, human. The following applies: BQ123 in combination with BQ788; melanoma cell lines of the study; data not shown. The procedure:
Equal amounts of RNA from cells that were treated with BQ788 for 3 days were subjected to real-time RT-PCR analysis for the detection VEGF (A), HIF-1α (B) and Gravin (C) transcripts. Differences in expression levels are shown as x fold change and are statistically significant (p<0.05) unless a column in marked as non significant (N.S.). Sections of two representative tumors derived from a human melanoma cell line grown in nude mice and injected either with vehicle (D) or BQ788 (E) were stained with anti CD-31 to highlight blood vessels (brown staining, Lahav et al, 1999).
RNA was prepared from the different cell lines in different culture conditions using SV total RNA isolation kit (Promega) according to the manufacturer's protocol. For each sample RNA concentration was determined using the total RNA nano procedure of an Agilent bioanalyzer. A stock of SK-MEL-28 RNA aliquots was prepared containing 10, 20, 50, 100, 200, 500 and 1000 ng/12 μl for use as a standard curve and kept in −80° C. For the experimental unknown samples, a stock of 100 ng/12 μl RNA aliquots from each cell line and condition was prepared and stored at −80° C. For each real-time experiment one series of standard curve and unknown experimental series of aliquots was put on ice for use. Complementary DNA was prepared by adding to each tube 0.5 μl of random hexamers (Promega) and 1 μl of 10 mM dNTP mix (Promega) and incubating at 65° C. for 5 min. 4 μl of 5× M-MLV buffer (Promega), 1 μl of the RNase inhibitor RNasin (Promega) and 1 μl of M-MLV RT RNase H (Promega) were then added and the solution was incubated at 42° C. for 50 min followed by 15 min at 70° C. For real time reactions 15 μl of each cDNA sample were transferred to 3 wells in a 386 well plate. To each well we added 10 μl of TaqMan universal PCR master mix (Applied Biosystems), 1 μl of primers+probe mix (Assays-on-Demand from Applied Biosystems: EDNRB Hs00240747, BCL-2A1 Hs00187845, PARP-3 Hs00154151, VEGF Hs00173626, HIF-1α Hs00153153 and Gravin Hs00374507) and 4 μl of nuclease free water (Promega). Wells containing water instead of cDNA served as negative controls. The samples were subjected to 40 cycles of 15 sec at 95° C. and 1 min at 60° C. A standard curve of Ct versus RNA quantity was established and accordingly the Ct in the unknown samples was correlated to quantity of transcript.
Real-time PCR analysis confirmed that VEGF expression levels increased 18-fold in BQ788 treated LN-met cells and 65-fold in SK-MEL-28 cells, compared to only 2-fold in primary melanoma, and no change in the Cut-met line (FIG. 5). The changes in VEGF expression levels can be explained, at least in part, by changes in the expression levels of its known regulator hypoxia inducible factor-1 oc (HIF-1α) (Maxwell, et al., Oxygen sensors and angiogenesis, Semin. Cell Dev. Biol., 13:29-37 (2002)). […]
(In general: In qPCR the cycle at which signal appears reflects the starting amount.)

As to `CC(C)C[C@@H]1NC(=O)[C@@H](C(C)C)NC(=O)[C@@H]2CCCN2C(=O)[C@@H](CC(=O)O)NC(=O)[C@@H](Cc2c[nH]c3ccccc23)NC1=O` [BQ123] (cyclo(L[dW][dD]P[dV])), the “VEGF RNA levels compared to BQ788 alone” value is given as “did not result in changes”.

Values taken from patent publication US20060094676A1, “Compositions and methods for treating cancer using compositions comprising an inhibitor of endothelin receptor activity” (priority 2004, published 2006).
